Legend:
[1] = 101.33 kPa, Liquid, Vibrating tube method
[2] = xn = mol fraction of the nth substance listed; settings: 101 kPa, Liquid, Vibrating tube method

CCC(C)=O [butanone]
[1]
Settings | mass density [kg/m3]
288.15 K | 810.328
303.15 K | 794.629
313.15 K | 784.008

CCCCCl [1-chlorobutane] + CCCCCCC
mass density [kg/m3], [2]
Settings | 288.15 K | 303.15 K | 313.15 K
x1 = 0.0407 | 694.279 | 681.416 | 672.687
x1 = 0.0779 | 699.652 | 686.682 | 677.87
x1 = 0.1497 | 710.416 | 697.174 | 688.219
x1 = 0.2169 | 720.981 | 707.546 | 698.49
x1 = 0.2496 | 726.25 | 712.73 | 703.568
x1 = 0.2565 | 727.4 | 713.798 | 704.618
x1 = 0.2999 | 734.714 | 720.999 | 711.752
x1 = 0.363 | 745.784 | 731.835 | 722.416
x1 = 0.4023 | 752.916 | 738.839 | 729.286
x1 = 0.5009 | 771.635 | 757.206 | 747.426
x1 = 0.5052 | 772.539 | 758.088 | 748.294
x1 = 0.5987 | 791.61 | 776.768 | 766.715
x1 = 0.7138 | 817.052 | 801.757 | 791.398
x1 = 0.7493 | 825.378 | 809.928 | 799.44
x1 = 0.8009 | 837.92 | 822.176 | 811.608
x1 = 0.8875 | 860.284 | 844.077 | 833.14
x1 = 0.9476 | 876.694 | 860.27 | 849.181

CCCC(C)=O [pentan-2-one]
[1]
Settings | mass density [kg/m3]
288.15 K | 811.491
303.15 K | 796.955
313.15 K | 787.16

CCCC(C)=O [pentan-2-one] + CCCCCl
mass density [kg/m3], [2]
Settings | 288.15 K | 303.15 K | 313.15 K
x2 = 0.0725 | 816.977 | 802.287 | 792.387
x2 = 0.1054 | 819.501 | 804.742 | 794.796
x2 = 0.1321 | 821.521 | 806.72 | 796.726
x2 = 0.2299 | 829.083 | 814.071 | 803.941
x2 = 0.2994 | 834.489 | 819.331 | 809.089
x2 = 0.3515 | 838.598 | 823.323 | 813
x2 = 0.4369 | 845.4 | 829.942 | 819.494
x2 = 0.493 | 849.874 | 834.295 | 823.772
x2 = 0.5816 | 857.018 | 841.242 | 830.585
x2 = 0.6518 | 862.707 | 846.788 | 836.036
x2 = 0.6948 | 866.208 | 850.202 | 839.378
x2 = 0.749 | 870.664 | 854.538 | 843.633
x2 = 0.8055 | 875.345 | 859.097 | 848.116
x2 = 0.8359 | 877.911 | 861.609 | 850.574
x2 = 0.8866 | 882.185 | 865.757 | 854.665
x2 = 0.9145 | 884.566 | 868 | 856.9

CCCCCl [1-chlorobutane]
[1]
Settings | mass density [kg/m3]
288.15 K | 891.747
303.15 K | 875.099
313.15 K | 863.833

CCCCCCC [heptane]
[1]
Settings | mass density [kg/m3]
288.15 K | 688.588
303.15 K | 675.838
313.15 K | 665.838

CCCC(C)=O [pentan-2-one] + CCCCCCC
mass density [kg/m3], [2]
Settings | 288.15 K | 303.15 K | 313.15 K
x2 = 0.0562 | 801.549 | 787.145 | 777.44
x2 = 0.1047 | 793.314 | 778.964 | 769.309
x2 = 0.1946 | 778.848 | 764.618 | 755.031
x2 = 0.2463 | 770.971 | 756.828 | 747.271
x2 = 0.3006 | 763.126 | 748.98 | 739.521
x2 = 0.312 | 761.486 | 747.38 | 737.93
x2 = 0.3664 | 754.046 | 740.019 | 730.578
x2 = 0.4233 | 746.601 | 732.618 | 723.231
x2 = 0.4921 | 738.067 | 724.274 | 714.996
x2 = 0.5566 | 730.511 | 716.874 | 707.632
x2 = 0.6001 | 725.625 | 712.061 | 702.877
x2 = 0.7003 | 715.045 | 701.616 | 692.572
x2 = 0.7526 | 709.893 | 696.524 | 687.536
x2 = 0.8233 | 703.177 | 689.947 | 681.074
x2 = 0.8918 | 697.119 | 684.045 | 675.297
x2 = 0.95 | 692.408 | 679.462 | 670.763

CCC(C)=O [butanone] + CCCCCCC
mass density [kg/m3], [2]
Settings | 288.15 K | 303.15 K | 313.15 K
x2 = 0.0488 | 799.693 | 784.166 | 773.658
x2 = 0.0875 | 791.829 | 776.433 | 766.011
x2 = 0.1976 | 771.92 | 756.87 | 746.674
x2 = 0.2409 | 764.837 | 749.92 | 739.808
x2 = 0.2995 | 755.954 | 741.212 | 731.216
x2 = 0.3726 | 745.725 | 731.183 | 721.184
x2 = 0.444 | 736.645 | 722.313 | 712.588
x2 = 0.4708 | 733.346 | 719.166 | 709.492
x2 = 0.5132 | 728.532 | 714.398 | 704.806
x2 = 0.5941 | 719.999 | 706.083 | 696.646
x2 = 0.7024 | 709.67 | 696.076 | 686.851
x2 = 0.7471 | 705.937 | 692.464 | 683.324
x2 = 0.8016 | 701.621 | 688.317 | 679.294
x2 = 0.8341 | 699.194 | 686.007 | 677.044
x2 = 0.896 | 694.863 | 681.831 | 672.997
x2 = 0.9545 | 691.133 | 678.282 | 669.575

CCCCCl [1-chlorobutane] + CCC(C)=O
mass density [kg/m3], [2]
Settings | 288.15 K | 303.15 K | 313.15 K
x1 = 0.0603 | 815.629 | 799.819 | 789.16
x1 = 0.102 | 819.225 | 803.373 | 792.657
x1 = 0.1968 | 827.479 | 811.507 | 800.7
x1 = 0.2964 | 835.868 | 819.774 | 808.881
x1 = 0.4017 | 844.704 | 828.487 | 817.514
x1 = 0.4502 | 848.687 | 832.432 | 821.402
x1 = 0.5138 | 853.847 | 837.516 | 826.466
x1 = 0.5467 | 856.509 | 840.156 | 829.081
x1 = 0.6451 | 864.357 | 847.919 | 836.788
x1 = 0.6988 | 868.609 | 852.133 | 840.975
x1 = 0.7994 | 876.429 | 859.878 | 848.676
x1 = 0.8296 | 878.808 | 862.217 | 850.983
x1 = 0.9037 | 884.435 | 867.832 | 856.591
x1 = 0.9336 | 886.734 | 870.09 | 858.856

Source: the NIST ThermoML archive (doi:10.1016/j.tca.2012.04.001)
